Experimental data from US12337010B2, “Compositions and methods of treatment using nicotinamide mononucleotide” (Washington University, priority 2017, dated 2025).
Values belong to the compound of their own block, whether it stands above or below them.

Key:
Slc12a8 [1] = target: T1, Slc12a8 (Mus musculus, UniProt Q8VI23); assay: 3H-NMN uptake and displacement in Slc12a8-OE proteoliposomes; type: biochemical; conditions: for displacement of 3H-NMN: 150 μM cold compound, 150 nM 3H-NMN, 2 min
T1 construct: NIH3T3 cells were transfected with 5 μg of pCXN2 carrying the full-length Slc12a8 cDNA (Slc12a8-OE); expressed in transfected cells
T1 sequence (Q8VI23 1-705): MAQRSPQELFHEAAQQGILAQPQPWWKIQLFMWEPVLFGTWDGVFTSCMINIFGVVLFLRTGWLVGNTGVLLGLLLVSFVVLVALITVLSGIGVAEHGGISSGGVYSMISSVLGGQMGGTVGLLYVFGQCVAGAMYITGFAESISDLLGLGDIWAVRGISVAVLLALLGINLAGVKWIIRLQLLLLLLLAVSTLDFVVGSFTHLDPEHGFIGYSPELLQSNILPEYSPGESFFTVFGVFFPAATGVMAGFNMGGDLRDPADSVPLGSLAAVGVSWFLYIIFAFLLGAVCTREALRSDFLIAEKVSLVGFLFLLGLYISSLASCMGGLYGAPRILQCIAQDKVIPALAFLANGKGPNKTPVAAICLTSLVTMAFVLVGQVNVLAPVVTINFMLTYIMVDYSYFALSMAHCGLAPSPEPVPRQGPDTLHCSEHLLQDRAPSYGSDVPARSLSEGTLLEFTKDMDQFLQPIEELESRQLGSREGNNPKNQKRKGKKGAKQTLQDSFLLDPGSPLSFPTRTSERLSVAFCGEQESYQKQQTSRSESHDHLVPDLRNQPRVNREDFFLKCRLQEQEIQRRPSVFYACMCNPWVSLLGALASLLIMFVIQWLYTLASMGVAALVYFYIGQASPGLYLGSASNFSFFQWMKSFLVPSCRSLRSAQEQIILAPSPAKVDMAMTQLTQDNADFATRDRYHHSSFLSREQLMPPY
Description: Proteoliposome experiments. Proteoliposome preparation was carried out as previously described (Bruzzone, S., et al., FASEB J., 15, 10-12, 2001). Briefly, 2×10^7 control or Slc12a8-OE NIH3T3 cells were resuspended in 1 ml of lysis buffer (10 mM Tris-HCl, pH 8.3, 150 mM NaCl, 0.3 M sucrose, protease inhibitor cocktail) and disrupted using a homogenizer. The lysate was centrifuged for 10 min at 3,000×g, and the supernatant was collected and centrifuged for 15 min at 100,000×g. The membrane proteins were solubilized with buffer A (10 mM Tris-HCl, pH 8.3, containing 150 mM NaCl and 0.5% n-octyl β-glucopyranoside). Separately, total lipids were extracted from hemoglobin-free erythrocyte membranes (ghosts) as described previously (Franco, L., et al., FASEB J., 12, 1507-1520, 1998). Total lipids from human erythrocyte membranes (3 mg) were dried and resuspended with 600 μl of solubilized membrane proteins (at approximately 0.7 mg/ml protein concentration). The resulting emulsions were sonicated in ice for 1 min and dialyzed against 5 liters of buffer A without n-octyl-β-glucopyranoside (dialysis buffer) for 24 h at 4° C. Proteoliposomes were recovered, centrifuged for 15 min at 100,000×g, resuspended in 900 μl dialysis buffer and passed 5 times through a 30-gauge needle.
To examine the Na+-dependency of Slc12a8, NaCl was replaced with 150 mM LiCl. All steps were carried out at 4° C. Proteoliposomes (30 μl in triplicate for each condition) were incubated for 2, 5 or 10 min at 25° C. in the presence of […] 3H-β-NMN (specific activity, 9.1 Ci/mmole) with or without label-free nucleotides (NMN, NR, NAD, AMP; NAM or NaMN). At the end of incubations, samples were filtered on a glass fiber paper. Filters were washed with 3 ml of dialysis buffer, dried, and counted for radioactivity.
Proteoliposomes were produced by combining the membrane fractions of Slc12a8-OE or control NIH3T3 cells with the phospholipid bilayers derived from deproteinized erythrocyte plasma membrane as described supra using 22 nM, ^3H-NMN at 25° C. in proteoliposomes produced from plasma membrane fractions of Slc12a8-OE and control NIH3T3 cells in transport buffer (n=3; analyzed by one-way ANOVA with Sidak's multiple comparisons test).
In order to determine substrate specificity of Slc12a8, these Slc12a8-OE proteoliposomes were used for displacement experiments with ^3H-NMN and various cold NAD+-related compounds. Uptake of ^3H-NMN (150 nM, 25° C.) was measured at 2 min in Slc12a8-OE proteoliposomes in the presence of 150 μM competing cold compounds (NMN, NR, NAD, AMP, NaMN, and nicotinamide) in transport buffer (n=3, analyzed by ANOVA with Dunnett's test). […] Data are shown as percentages of ^3H-NMN uptake (n=3; IC50 was calculated by non-linear regression analysis).
In these experiments, the sodium ion dependency of Slc12a8 for NMN transport was evaluated using the proteoliposome system.

Slc12a8 [2] = target: T1, Slc12a8; assay: Radiolabeled NMN uptake in Slc12a8-OE and control NIH3T3 cells; type: cell-based; conditions: 25 μM, 37° C., 3 and 5 min time points, Slc12a8-OE cells compared to control cells
Description: NMN uptake analyses with radiolabeled NMN. Control and Slc12a8-OE NIH3T3 cells were harvested by centrifugation (400×g, 5 min), washed once in HBSS, and incubated at 37° C. in HBSS [pH 7.5] (5×10^6 cells/ml) containing 100 nM 3H-β-Nicotinamide mononucleotide (9 Ci/mmol; Moravek Biochemicals, CA) and unlabeled NMN to make the final concentration 25 μM. At the designated time points (1, 3, 5 and 10 minutes), aliquots of the cells (100 μl) were collected and placed in 1.5-ml microcentrifuge tubes containing silicone-mineral oil (density, 1.015; Sigma-Aldrich) on the top of 2 M potassium hydroxide solution, followed by centrifugation at 16,000×g for 30s. Cells were separated from the buffer and pelleted through the silicone-mineral oil layer. The radioactivity in these cell pellets was determined by a liquid scintillation counter. For calculating Km and Vmax, the same conditions were used as described above, but with various total concentrations of NMN, ranging from 1 μM to 100 μM. At the 4-min time point, 100 μl of cell suspension was collected and pelleted in the same way described above. The radioactivity in cell pellets was determined by a liquid scintillation counter. The radioactivity measured in control NIH3T3 cells was subtracted to calculate Slc12a8-specific NMN uptake in Slc12a8-OE NIH3T3 cells.
Uptake of NMN was measured as described in methods under “NMN uptake analyses with radiolabeled NMN” using 25 μM ^3H-NMN at 37° C. in control and Slc12a8-OE NIH3T3 cells over 10 min in Hanks' buffer [ph7.5] with Mg2+ and Ca2+ (n=12; analyzed by ANOVA with Sidak's test). […] This Km is qualitatively consistent with a detected range of NMN concentrations in mouse plasma and erythrocytes (Revollo, J. R. et al., Cell Metab., 6, 363-375, 2007; Ramsey, K. M., et al., Science, 324, 651-654, 2009; Yamada, K., et al., Anal. Biochem., 352, 282-285, 2006).

Slc12a8 gene = assay: Microarray gene expression profiling of FK866-treated primary cultures; type: cell-based, mouse
Description: Microarray Analysis. Total RNA was isolated from primary hepatocytes, pancreatic islets, and hippocampal neurospheres, treated with 0.1% DMSO (control) or FK866 (200 nM for primary hepatocytes, and 10 nM for pancreatic islets and hippocampal neurospheres). To determine transcriptional changes induced by FK866 treatment, microarray analyses were conducted using the Illumina Mouse Ref 8 whole genome microarrays (version 2). […] All data were analyzed by the R statistical software package.
Slc12a8 was identified in the section of the Venn diagram in FIG. 1 indicated by an arrow. The Slc12a8 gene belongs to the SLC12 gene family of the electroneutral cation-chloride-coupled co-transporters, and the function of the protein encoded by this gene remains unknown (Hebert, S. C., et al., Pflugers Arch. 447, 580-593, 2004).

Slc12a8 mRNA expression = Slc12a8 mRNA expression by quantitative RT-PCR in cells and ex vivo small intestine explants; type: cell-based, mouse; conditions: FK866 alone; primary hepatocytes, NIH3T3 fibroblasts (24 h), jejunum and ileum explants (4 h)
Description: Cell culture and ex vivo small intestine explant culture. […] For Slc12a8 mRNA expression analysis, 2.5×10^5 cells per well were incubated in 6-well plates with DMEM with 1% FBS containing 0.1% DMSO or 100 nM FK866 or 100 nM FK866 plus 100 μM NMN for 24 h. Small intestines from 3-month old B6 male mice were cut into three segments with duodenum/jejunum/ileum length ratios of 1:3:2 (Wang, H. H., et al., Hepatology 45, 998-1006, 2007). […] Cellular and tissue RNA samples were analyzed by quantitative RT-PCR, as described previously (Stein, L. R. & Imai, S., EMBO J., 33, 1321-1340, 2014).
The amounts of adenosine produced were determined by HPLC. […] Silencing efficiencies were evaluated by quantitative RT-PCR.
FIG. 2 illustrates that Slc12a8 is highly expressed in the small intestine and pancreas and moderately in the liver and white adipose tissue of B6 male mice at 3 months of age (n=3 mice). […] Cells were treated with these compounds for 24 h (n=4 mice for hepatocytes treated with DMSO and FK866, and n=3 mice for hepatocytes treated with FK866 and NMN; n=6 for NIH3T3 cells; analyzed using ANOVA with Tukey's test). FIG. 5 illustrates surface and intracellular Slc12a8 protein expression levels were measured by flow cytometry analysis in NIH3T3 cells treated with FK866 or FK866 plus NMN for 48h. […]

Compound: 3H-β-Nicotinamide mononucleotide [^3H-NMN]
3H-NMN incorporation (Slc12a8 [1]; 22 nM, 25° C., within 2 min, Slc12a8-OE-derived vs control-derived proteoliposomes): significantly higher levels
uptake of 3H-NMN (Slc12a8 [2]): significantly enhanced

Compound: O=C(O)c1cccnc1 [NA, nicotinic acid]
effect on uptake of 3H-NMN (Slc12a8 [1]; Slc12a8-overexpressing proteoliposomes): able to enhance the uptake

Compound: NC(=O)c1cccnc1 [nicotinamide]
displacement of 3H-NMN (Slc12a8 [1]; 25° C.): very low or negligible displacement

Compound: O=C(/C=C/c1cccnc1)NCCCCC1CCN(C(=O)c2ccccc2)CC1 [FK866]
Slc12a8 Z ratio (Slc12a8 gene; hippocampal neurospheres, 10 nM FK866 vs 0.1% DMSO): 4.91
Slc12a8 Z ratio (Slc12a8 gene; pancreatic islets, 10 nM FK866 vs 0.1% DMSO): 1.69
Slc12a8 Z ratio (Slc12a8 gene; primary hepatocytes, 200 nM FK866 vs 0.1% DMSO): 2.06
Slc12a8 expression (Slc12a8 mRNA expression): induced significantly

Compound: O=C(O)c1ccc[n+]([C@@H]2O[C@H](COP(=O)(O)O)[C@@H](O)[C@H]2O)c1 [NaMN, nicotinic acid mononucleotide]
displacement of 3H-NMN (Slc12a8 [1]; 25° C.): very low or negligible displacement

The remaining lines, values ahead:

displacement of 3H-NMN (Slc12a8 [1]; 25° C.): very low or negligible displacement
Compound: Nc1ncnc2c1ncn2[C@@H]1O[C@H](COP(=O)(O)O)[C@@H](O)[C@H]1O [AMP, adenosine monophosphate]

displacement of 3H-NMN (Slc12a8 [1]; 25° C.): very low or negligible displacement
Compound: NC(=O)c1ccc[n+]([C@@H]2O[C@H](COP(=O)([O-])OP(=O)(O)OC[C@H]3O[C@@H](n4cnc5c(N)ncnc54)[C@H](O)[C@@H]3O)[C@@H](O)[C@H]2O)c1 [NAD+]

displacement of 3H-NMN (Slc12a8 [1]; 25° C.): ~70%
IC50 (Slc12a8 [1]; Slc12a8-OE proteoliposome system): 77.4 ± 10.8 µM
Compound: NC(=O)c1ccc[n+]([C@@H]2O[C@H](CO)[C@@H](O)[C@H]2O)c1 [NR, nicotinamide riboside]
